Experimental findings from patent US8394952B2 (Vertex Pharmaceuticals Incorporated, priority 2006, dated 2013) are described below.

SMILES strings stand for the structures.

Usually Ki stands for the dissociation constant of the complex between target and ligand, obtained from inhibition or displacement.

This assay deals with Plk1 (Homo sapiens, UniProt P53350). Briefly: biochemical.
Chain of Plk1 (P53350 20-338): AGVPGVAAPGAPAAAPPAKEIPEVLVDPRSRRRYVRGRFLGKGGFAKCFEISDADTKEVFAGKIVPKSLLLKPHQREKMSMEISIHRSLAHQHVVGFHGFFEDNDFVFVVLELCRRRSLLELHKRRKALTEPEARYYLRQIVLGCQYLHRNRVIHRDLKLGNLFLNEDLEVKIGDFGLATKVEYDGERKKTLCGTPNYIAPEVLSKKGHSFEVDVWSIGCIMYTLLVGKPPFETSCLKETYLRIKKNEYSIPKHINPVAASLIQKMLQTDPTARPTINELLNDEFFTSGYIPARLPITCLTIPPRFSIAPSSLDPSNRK
In turn, `COc1cc(C(=O)Nc2cc(C)ns2)ccc1Nc1ncc2c(n1)N(C1CCCC1)CC(C)(C)C(=O)N2C` [Compound I-232, 4-(9-cyclopentyl-5,7,7-trimethyl-6-oxo-6,7,8,9-tetrahydro-5H-pyrimido[4,5-b][1,4]diazepin-2-ylamino)-3-methoxy-N-(3-methylisothiazol-5-yl)benzamide] returned a Ki of less than 10 nM.
For `COc1cc(C(=O)NCC#N)ccc1Nc1ncc2c(n1)N(C1CCCC1)CC(C)(C)C(=O)N2C` [Compound I-233, N-(cyanomethyl)-4-(9-cyclopentyl-5,7,7-trimethyl-6-oxo-6,7,8,9-tetrahydro-5H-pyrimido[4,5-b][1,4]diazepin-2-ylamino)-3-methoxybenzamide] the value was less than 10 nM; for `COc1cc(C(=O)Nc2ccncc2C(F)(F)F)ccc1Nc1ncc2c(n1)N(C1CCCC1)CC(C)(C)C(=O)N2C` [Compound I-234], less than 10 nM; for `COc1cc(C(=O)NCc2cc(C)on2)ccc1Nc1ncc2c(n1)N(C1CCCC1)CC(C)(C)C(=O)N2C` [Compound I-235, 4-(9-cyclopentyl-5,7,7-trimethyl-6-oxo-6,7,8,9-tetrahydro-5H-pyrimido[4,5-b][1,4]diazepin-2-ylamino)-3-methoxy-N-((5-methylisoxazol-3-yl)methyl)benzamide], less than 10 nM.
For `COc1cc(C(=O)Nc2ncc(C)s2)ccc1Nc1ncc2c(n1)N(C1CCCC1)CC(C)(C)C(=O)N2C` [Compound I-236, 4-(9-cyclopentyl-5,7,7-trimethyl-6-oxo-6,7,8,9-tetrahydro-5H-pyrimido[4,5-b][1,4]diazepin-2-ylamino)-3-methoxy-N-(5-methylthiazol-2-yl)benzamide] the value was less than 10 nM; for `COc1cc(C(=O)NCCOCCO)ccc1Nc1ncc2c(n1)N(C1CCCC1)CC(C)(C)C(=O)N2C` [Compound I-237, 4-(9-cyclopentyl-5,7,7-trimethyl-6-oxo-6,7,8,9-tetrahydro-5H-pyrimido[4,5-b][1,4]diazepin-2-ylamino)-N-(2-(2-hydroxyethoxy)ethyl)-3-methoxybenzamide], less than 10 nM.
For `COc1cc(C(=O)NC(C)C)ccc1Nc1ncc2c(n1)N(C1CCCC1)CC(C)(C)C(=O)N2C` [Compound I-238, 4-(9-cyclopentyl-5,7,7-trimethyl-6-oxo-6,7,8,9-tetrahydro-5H-pyrimido[4,5-b][1,4]diazepin-2-ylamino)-N-isopropyl-3-methoxybenzamide] the value was less than 10 nM.
As for `COc1cc(C(=O)N[C@H](CO)C(C)C)ccc1Nc1ncc2c(n1)N(C1CCCC1)CC(C)(C)C(=O)N2C` [Compound I-239, (S)-4-(9-cyclopentyl-5,7,7-trimethyl-6-oxo-6,7,8,9-tetrahydro-5H-pyrimido[4,5-b][1,4]diazepin-2-ylamino)-N-(1-hydroxy-3-methylbutan-2-yl)-3-methoxybenzamide], the inhibitory constant (Ki) was less than 10 nM.
For `COc1cc(C(=O)NC(C)(C)CO)ccc1Nc1ncc2c(n1)N(C1CCCC1)CC(C)(C)C(=O)N2C` [Compound I-240, 4-(9-cyclopentyl-5,7,7-trimethyl-6-oxo-6,7,8,9-tetrahydro-5H-pyrimido[4,5-b][1,4]diazepin-2-ylamino)-N-(1-hydroxy-2-methylpropan-2-yl)-3-methoxybenzamide] the value was less than 10 nM; for `COc1cc(C(=O)NCCCO)ccc1Nc1ncc2c(n1)N(C1CCCC1)CC(C)(C)C(=O)N2C` [Compound I-241], less than 10 nM; for `COc1cc(C(=O)NC[C@H](O)CO)ccc1Nc1ncc2c(n1)N(C1CCCC1)CC(C)(C)C(=O)N2C` [Compound I-242, (S)-4-(9-cyclopentyl-5,7,7-trimethyl-6-oxo-6,7,8,9-tetrahydro-5H-pyrimido[4,5-b][1,4]diazepin-2-ylamino)-N-(2,3-dihydroxypropyl)-3-methoxybenzamide], less than 10 nM.
Consider `COc1cc(C(=O)NCCC(C)O)ccc1Nc1ncc2c(n1)N(C1CCCC1)CC(C)(C)C(=O)N2C` (stereo not shown) [Compound I-243, 4-(9-cyclopentyl-5,7,7-trimethyl-6-oxo-6,7,8,9-tetrahydro-5H-pyrimido[4,5-b][1,4]diazepin-2-ylamino)-N-(3-hydroxybutyl)-3-methoxybenzamide], for which the Ki is less than 10 nM.
For `COc1cc(C(=O)N[C@@H]2CCC[C@H]2O)ccc1Nc1ncc2c(n1)N(C1CCCC1)CC(C)(C)C(=O)N2C` [Compound I-244, 4-(9-cyclopentyl-5,7,7-trimethyl-6-oxo-6,7,8,9-tetrahydro-5H-pyrimido[4,5-b][1,4]diazepin-2-ylamino)-N-((1R,2R)-2-hydroxycyclopentyl)-3-methoxybenzamide] the value was less than 10 nM.
For `COc1cc(C(=O)NCC2CC2(F)F)ccc1Nc1ncc2c(n1)N(C1CCCC1)CC(C)(C)C(=O)N2C` (stereo not shown) [Compound I-245, 4-(9-cyclopentyl-5,7,7-trimethyl-6-oxo-6,7,8,9-tetrahydro-5H-pyrimido[4,5-b][1,4]diazepin-2-ylamino)-N-((2,2-difluorocyclopropyl)methyl)-3-methoxybenzamide] the value was less than 10 nM; for `COc1cc(C(=O)NCC2CCC2)ccc1Nc1ncc2c(n1)N(C1CCCC1)CC(C)(C)C(=O)N2C` [Compound I-246, N-(cyclobutylmethyl)-4-(9-cyclopentyl-5,7,7-trimethyl-6-oxo-6,7,8,9-tetrahydro-5H-pyrimido[4,5-b][1,4]diazepin-2-ylamino)-3-methoxybenzamide], less than 10 nM; for `COc1cc(C(=O)NCc2ccncc2)ccc1Nc1ncc2c(n1)N(C1CCCC1)CC1(CC1)C(=O)N2C` [Compound I-247, 4-(9′-cyclopentyl-5′-methyl-6′-oxo-5′,6′,8′,9′-tetrahydrospiro[cyclopropane-1,7′-pyrimido[4,5-b][1,4]diazepine]-2′-ylamino)-3-methoxy-N-(pyridin-4-ylmethyl)benzamide], less than 10 nM.
As to `COc1cc(C(=O)NCc2ccco2)ccc1Nc1ncc2c(n1)N(C1CCCC1)CC1(CC1)C(=O)N2C` [Compound I-248, 4-(9′-cyclopentyl-5′-methyl-6′-oxo-5′,6′,8′,9′-tetrahydrospiro[cyclopropane-1,7′-pyrimido[4,5-b][1,4]diazepine]-2′-ylamino)-N-(furan-2-ylmethyl)-3-methoxybenzamide], the Ki is less than 10 nM.
For `COc1cc(C(=O)NCc2cccnc2)ccc1Nc1ncc2c(n1)N(C1CCCC1)CC1(CC1)C(=O)N2C` [Compound I-249, 4-(9′-cyclopentyl-5′-methyl-6′-oxo-5′,6′,8′,9′-tetrahydrospiro[cyclopropane-1,7′-pyrimido[4,5-b][1,4]diazepine]-2′-ylamino)-3-methoxy-N-(pyridin-3-ylmethyl)benzamide] the value was less than 10 nM.
`COc1cc(-c2ncc[nH]2)ccc1Nc1ncc2c(n1)N(C1CCCC1)CC(C)(C)C(=O)N2C` [Compound I-250, 2-(4-(1H-imidazole-2-yl)-2-methoxyphenylamino)-9-cyclopentyl-5,7,7-trimethyl-8,9-dihydro-5H-pyrimido[4,5-b][1,4]diazepin-6(7H)-one] showed a Ki of less than 10 nM.
For `COc1cc(C(=O)N[C@H]2CC[C@H](O)CC2)ccc1Nc1ncc2c(n1)N(C1CCCC1)CC1(CC1)C(=O)N2C` [Compound I-251, 4-(9′-cyclopentyl-5′-methyl-6′-oxo-5′,6′,8′,9′-tetrahydrospiro[cyclopropane-1,7′-pyrimido[4,5-b][1,4]diazepine]-2′-ylamino)-N-((1R,4R)-4-hydroxycyclohexyl)-3-methoxybenzamide] the value was less than 10 nM; for `COc1cc(C(=O)NC[C@@H]2CCCC[C@@H]2O)ccc1Nc1ncc2c(n1)N(C1CCCC1)CC1(CC1)C(=O)N2C` [Compound I-252, 4-(9′-cyclopentyl-5′-methyl-6′-oxo-5′,6′,8′,9′-tetrahydrospiro[cyclopropane-1,7′-pyrimido[4,5-b][1,4]diazepine]-2′-ylamino)-N-(((1S,2S)-2-hydroxycyclohexyl)methyl)-3-methoxybenzamide], less than 10 nM; for `COc1cc(C(=O)NN2CCCC2)ccc1Nc1ncc2c(n1)N(C1CCCC1)CC1(CC1)C(=O)N2C` [Compound I-253, 4-(9′-cyclopentyl-5′-methyl-6′-oxo-5′,6′,8′,9′-tetrahydrospiro[cyclopropane-1,7′-pyrimido[4,5-b][1,4]diazepine]-2′-ylamino)-3-methoxy-N-(pyrrolidin-1-yl)benzamide], less than 10 nM.
For `COc1cc(C(=O)NC2(CO)CCCC2)ccc1Nc1ncc2c(n1)N(C1CCCC1)CC(C)(C)C(=O)N2C` [Compound I-254, 4-(9-cyclopentyl-5,7,7-trimethyl-6-oxo-6,7,8,9-tetrahydro-5H-pyrimido[4,5-b][1,4]diazepin-2-ylamino)-N-(1-(hydroxymethyl)cyclopentyl)-3-methoxybenzamide] the value was less than 10 nM; for `COc1cc(C(=O)NCc2ccccn2)ccc1Nc1ncc2c(n1)N(C1CCCC1)CC(C)(C)C(=O)N2C` [Compound I-255, 4-(9-cyclopentyl-5,7,7-trimethyl-6-oxo-6,7,8,9-tetrahydro-5H-pyrimido[4,5-b][1,4]diazepin-2-ylamino)-3-methoxy-N-(pyridin-2-ylmethyl)benzamide], less than 10 nM.
Consider `COc1cc(C2=NCCN2)ccc1Nc1ncc2c(n1)N(C1CCCC1)CC(C)(C)C(=O)N2C` [Compound I-256, 9-cyclopentyl-2-(4-(4,5-dihydro-1H-imidazol-2-yl)-2-methoxyphenylamino)-5,7,7-trimethyl-8,9-dihydro-5H-pyrimido[4,5-b][1,4]diazepin-6(7H)-one], for which the Ki was less than 10 nM.
For `COc1cc(C2=NCC(C)(C)N2)ccc1Nc1ncc2c(n1)N(C1CCCC1)CC(C)(C)C(=O)N2C` [Compound I-257, 9-cyclopentyl-2-(4-(5,5-dimethyl-4,5-dihydro-1H-imidazol-2-yl)-2-methoxyphenylamino)-5,7,7-trimethyl-8,9-dihydro-5H-pyrimido[4,5-b][1,4]diazepin-6(7H)-one] the value was less than 10 nM; for `COc1cc(C(=O)N[C@@H]2CC[C@@H](O)C2)ccc1Nc1ncc2c(n1)N(C1CCCC1)CC(C)(C)C(=O)N2C` [Compound I-258], less than 10 nM; for `COc1cc(C(=O)NC[C@@H]2CC[C@@H](O)C2)ccc1Nc1ncc2c(n1)N(C1CCCC1)CC(C)(C)C(=O)N2C` [Compound I-259, 4-(9-cyclopentyl-5,7,7-trimethyl-6-oxo-6,7,8,9-tetrahydro-5H-pyrimido[4,5-b][1,4]diazepin-2-ylamino)-N-((1R,3R)-3-(hydroxycyclopentyl)methyl)-3-methoxybenzamide], less than 10 nM.
